assay: Compound was evaluated for its half life period.; assay type: ADME

Going from COc1ccc(NC(=O)/C=C\c2ccccc2OC(C)=O)cc1 to CC(=O)Oc1ccccc1/C=C\C(=O)NCc1ccccc1, the half-life rises from 1.63 min to 16.3 min (10-fold).

CC(=O)Oc1ccccc1/C=C\C(=O)N(C)Cc1ccccc1 showed a half-life of 31.2 min.
